Experimental data: patent US9302999B2, “Substituted triazoles as herbicides” (E. I. DU PONT DE NEMOURS AND COMPANY, priority 2012, dated 2016)
Where two headings read alike, the source gives them in different places.

What was measured:
Assay type in all cases: in vivo
[1] = tested on: velvetleaf (Abutilon theophrasti); experiment: Test A pre-/postemergence: velvetleaf; settings: Abutilon theophrasti, 240 h; for pest or weed control at 125 g/ha: 125 g ai/ha; for pest or weed control at 500 g/ha: 500 g ai/ha
How it was run: (§1)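 Visual 0–100 injury ratings (0 no effect, 100 complete control) taken about ten days after treatment, relative to untreated controls. Preemergence treatment was a directed soil spray; postemergence plants were 2–10 cm tall at one- to two-leaf stage. Soil: loam/sand blend.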

[2] = tested on: galium (catchweed bedstraw, Galium aparine); experiment: Test C pre-/postemergence: galium
How it was run: (§2)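 Preemergence on seeds in loam/sand, postemergence on 2–18 cm (1–4-leaf) plants in peat-based medium; compounds in non-phytotoxic solvent with surfactant. After 13–15 days in greenhouse, visual rating versus controls, 0 (no effect) to 100 (complete control).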

[3] = tested on: ryegrass, Italian (Italian ryegrass, Lolium multiflorum); experiment: Test C pre-/postemergence: ryegrass, Italian
How it was run: as §2

[4] = tested on: nutsedge, yellow (yellow nutsedge, Cyperus esculentus); experiment: Test C pre-/postemergence: nutsedge, yellow
How it was run: as §2

[5] = tested on: chickweed (common chickweed, Stellaria media); experiment: Test C postemergence: chickweed
How it was run: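 Greenhouse pot test; foliar postemergence treatment at 1- to 4-leaf stage. Rated visually at 13 to 15 days on a 0–100 control scale relative to untreated plants.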

[6] = tested on: barnyardgrass (Echinochloa crus-galli); experiment: Test A pre-/postemergence: barnyardgrass; settings: Echinochloa crus-galli, 240 h; for pest or weed control at 125 g/ha: 125 g ai/ha; for pest or weed control at 500 g/ha: 500 g ai/ha
How it was run: as §1

[7] = tested on: morningglory (Ipomoea spp.); experiment: Test A pre-/postemergence: morningglory; settings: Ipomoea, 240 h; for pest or weed control at 125 g/ha: 125 g ai/ha; for pest or weed control at 500 g/ha: 500 g ai/ha
How it was run: as §1

[8] = tested on: large crabgrass (Digitaria sanguinalis); experiment: Test C pre-/postemergence: large crabgrass
How it was run: as §2

[9] = tested on: crabgrass, large (large crabgrass, Digitaria sanguinalis); experiment: Test A pre-/postemergence: crabgrass, large; settings: Digitaria sanguinalis, 240 h; for pest or weed control at 125 g/ha: 125 g ai/ha; for pest or weed control at 500 g/ha: 500 g ai/ha
How it was run: as §1

wild oat (Avena fatua) = experiment: Test C pre-/postemergence: wild oat; settings: Postemergence
How it was run: as §2

[10] = tested on: foxtail, giant (giant foxtail, Setaria faberii); experiment: Test A pre-/postemergence: foxtail, giant; settings: Setaria faberi, 240 h; for pest or weed control at 125 g/ha: 125 g ai/ha; for pest or weed control at 500 g/ha: 500 g ai/ha
How it was run: as §1

[11] = Postemergence, 31 g ai/ha, scale 0 to 100 (0 no effect, 100 complete control)
[12] = Postemergence, 62 g ai/ha, scale 0 to 100 (0 no effect, 100 complete control)
[13] = Postemergence, 125 g ai/ha, scale 0 to 100, 0 no effect, 100 complete control
[14] = Postemergence, 250 g ai/ha, scale 0 to 100
[15] = Preemergence, 31 g ai/ha, scale 0 (no effect) to 100 (complete control)
[16] = Preemergence, 62 g ai/ha, scale of 0 to 100, 0 is no effect, 100 is complete control
[17] = Preemergence, 125 g ai/ha, scale 0 to 100, 0 no effect, 100 complete control
[18] = Preemergence, 250 g ai/ha, scale 0 to 100, 0 no effect, 100 complete control
[19] = 31 g ai/ha, scale 0 to 100 (0 no effect, 100 complete control)
[20] = 62 g ai/ha, scale 0 to 100 (0 no effect, 100 complete control)
[21] = 125 g ai/ha, scale 0 to 100, 0 no effect, 100 complete control

CCOc1nn(-c2ccc(C(F)(F)F)cc2)nc1Cc1ccnc(C(F)(F)F)c1 [Compound 164, 4-[[5-ethoxy-2-[4-(trifluoromethyl)phenyl]-2H-1,2,3-triazol-4-yl]methyl]-2-(trifluoromethyl)pyridine]
pest or weed control at 125 g/ha ([1]; post-emergence, Postemergence, 0 to 100 scale, 0 is no effect, 100 is complete control, read-out: Plant response rating, Velvetleaf): 100% | pest or weed control at 500 g/ha ([1]; post-emergence, Postemergence, 0 to 100 scale, 0 is no effect, 100 is complete control, read-out: Velvetleaf plant response rating): 100% | pest or weed control at 125 g/ha ([1]; pre-emergence, Preemergence, 0 to 100 scale where 0 is no effect and 100 is complete control, read-out: Plant response rating, Velvetleaf): 80% | pest or weed control at 500 g/ha ([1]; pre-emergence, Preemergence, 0 to 100 scale (0 no effect, 100 complete control), read-out: Plant response rating, Velvetleaf): 100% | Plant response rating, Galium [2, 11]: 30 | Plant response rating, Galium [2, 12]: 30 | Plant response rating, Galium [2, 13]: 60 | Plant response rating, Galium [2, 14]: 60 | Plant response rating, Galium [2, 15]: 0 | Plant response rating, Galium [2, 16]: 50 | Plant response rating, Galium [2, 17]: 80 | Plant response rating, Galium [2, 18]: 80 | Plant response rating, Ryegrass, Italian [3, 11]: 5 | Plant response rating, Ryegrass, Italian [3, 12]: 5 | Plant response rating, Ryegrass, Italian [3, 13]: 5 | Plant response rating, Ryegrass, Italian [3, 14]: 5 | Plant response rating, Ryegrass, Italian [3, 15]: 5 | Plant response rating, Ryegrass, Italian [3, 16]: 10 | Plant response rating, Ryegrass, Italian [3, 17]: 55 | Plant response rating, Ryegrass, Italian [3, 18]: 75 | Plant response rating, Nutsedge, Yellow [4, 11]: 0 | Plant response rating, Nutsedge, Yellow [4, 12]: 5 | Plant response rating, Nutsedge, Yellow [4, 13]: 5 | Plant response rating, Nutsedge, Yellow [4, 14]: 10 | Plant response rating, Nutsedge, Yellow [4, 15]: 0 | Plant response rating, Nutsedge, Yellow [4, 16]: 0 | Plant response rating, Nutsedge, Yellow [4, 17]: 0 | Plant response rating, Nutsedge, Yellow [4, 18]: 0 | Plant response rating, Chickweed [5, 19]: 10 | Plant response rating, Chickweed [5, 20]: 40 | Plant response rating, Chickweed [5, 21]: 45 | Plant response rating, Chickweed ([5]; 250 g ai/ha, scale 0 to 100): 45 | pest or weed control at 125 g/ha ([6]; post-emergence, Postemergence, 0 to 100 scale, 0 is no effect, 100 is complete control, read-out: Plant response rating, Barnyardgrass): 90% | pest or weed control at 500 g/ha ([6]; post-emergence, Postemergence, 0 to 100 scale, 0 is no effect, 100 is complete control, read-out: Barnyardgrass plant response rating): 90% | pest or weed control at 125 g/ha ([6]; pre-emergence, Preemergence, 0 to 100 scale where 0 is no effect and 100 is complete control, read-out: Plant response rating, Barnyardgrass): 90% | pest or weed control at 500 g/ha ([6]; pre-emergence, Preemergence, 0 to 100 scale (0 no effect, 100 complete control), read-out: Plant response rating, Barnyardgrass): 100% | pest or weed control at 125 g/ha ([7]; post-emergence, Postemergence, 0 to 100 scale, 0 is no effect, 100 is complete control, read-out: Plant response rating, Morningglory): 100% | pest or weed control at 500 g/ha ([7]; post-emergence, Postemergence, 0 to 100 scale, 0 is no effect, 100 is complete control, read-out: Morningglory plant response rating): 100% | pest or weed control at 125 g/ha ([7]; pre-emergence, Preemergence, 0 to 100 scale where 0 is no effect and 100 is complete control, read-out: Plant response rating, Morningglory): 80% | pest or weed control at 500 g/ha ([7]; pre-emergence, Preemergence, 0 to 100 scale (0 no effect, 100 complete control), read-out: Plant response rating, Morningglory): 90% | Plant response rating, Crabgrass, Large [8, 11]: 5 | Plant response rating, Crabgrass, Large [8, 12]: 5 | Plant response rating, Crabgrass, Large [8, 13]: 10 | Plant response rating, Crabgrass, Large [8, 14]: 10 | Plant response rating, Crabgrass, Large [8, 15]: 70 | Plant response rating, Crabgrass, Large [8, 16]: 75 | Plant response rating, Crabgrass, Large [8, 17]: 98 | Plant response rating, Crabgrass, Large [8, 18]: 100 | pest or weed control at 125 g/ha ([9]; post-emergence, Postemergence, 0 to 100 scale, 0 is no effect, 100 is complete control, read-out: Plant response rating, Crabgrass, Large): 90% | pest or weed control at 500 g/ha ([9]; post-emergence, Postemergence, 0 to 100 scale, 0 is no effect, 100 is complete control, read-out: Crabgrass, Large plant response rating): 90% | pest or weed control at 125 g/ha ([9]; pre-emergence, Preemergence, 0 to 100 scale where 0 is no effect and 100 is complete control, read-out: Plant response rating, Crabgrass, Large): 100% | pest or weed control at 500 g/ha ([9]; pre-emergence, Preemergence, 0 to 100 scale (0 no effect, 100 complete control), read-out: Plant response rating, Crabgrass, Large): 100% | Plant response rating, Oat, Wild (wild oat (Avena fatua); [19]): 5 | Plant response rating, Oat, Wild (wild oat (Avena fatua); [20]): 5 | Plant response rating, Oat, Wild (wild oat (Avena fatua); [21]): 5 | Plant response rating, Oat, Wild (wild oat (Avena fatua); 250 g ai/ha, scale 0 to 100): 10 | pest or weed control at 125 g/ha ([10]; post-emergence, Postemergence, 0 to 100 scale, 0 is no effect, 100 is complete control, read-out: Plant response rating, Foxtail, Giant): 90% | pest or weed control at 500 g/ha ([10]; post-emergence, Postemergence, 0 to 100 scale, 0 is no effect, 100 is complete control, read-out: Foxtail, Giant plant response rating): 90% | pest or weed control at 125 g/ha ([10]; pre-emergence, Preemergence, 0 to 100 scale where 0 is no effect and 100 is complete control, read-out: Plant response rating, Foxtail, Giant): 100% | pest or weed control at 500 g/ha ([10]; pre-emergence, Preemergence, 0 to 100 scale (0 no effect, 100 complete control), read-out: Plant response rating, Foxtail, Giant): 100%
